Like-named read-outs stand apart in the source and are kept apart here.
Legend:
[1] = system: Candida albicans (NCPF3179); test: MIC, Candida albicans; assay type: cell-based; conditions: Candida albicans, NCPF3179, read-out: Minimum inhibitory concentrations (MICs), C. albicans
[2] = system: Staphylococcus aureus Strain 2 (NCTC 6571); test: MIC, Staphylococcus aureus Strain 2; assay type: cell-based; conditions: Staphylococcus aureus, NCTC6571, read-out: Minimum inhibitory concentrations (MICs), S. aureus 2
Method in brief: (§1)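 Broth microdilution with doubling dilutions of compound in Mueller-Hinton Broth, incubated at 37° C. MIC read from the colour pattern in the wells. Sterility and growth controls included.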

[3] = system: Mycobacter fortuitum (NCTC 10394); test: MIC, Mycobacter fortuitum; assay type: cell-based; conditions: Mycolicibacterium fortuitum, NCTC10394, read-out: Minimum inhibitory concentrations (MICs), M. fortuitum
Protocol: The effects of compounds of the invention in relation to inhibiting the growth of various microorganisms was determined using methods known to those skilled in the art, for example in vitro methods as described in J. Med. Chem. 47, 2133-2156 (2004) and in vivo methods as described in J. Med. Microbiol. 46, 208-213 (1997), the disclosures of which documents are hereby incorporated by reference. In particular, minimum inhibitory concentrations (MICs) against microorganisms (e.g. S. Aureus, Streptococcus faecalis, Aspergillus niger, Candida albicans or Mycobacterium fortuitum) for compounds of the invention may be measured using procedures such as those described in A. J. Drummond and […] development of microbiological methods for phytochemical screening” Recent Res. Devel. […] The test wells on each 96 well microtitre plate were initially inoculated with culture medium (100 μL) using Mueller-Hinton Broth for antibacterial assays and Sabouraud Broth for antifungal assays. A solution of each test sample (100 μL) was added to one row of each plate and a series of doubling dilutions made for successive rows. Incubation was at 37° C. for antibacterial assay and 25° C. for antifungal assay. […] From the observed pattern of colour, the MIC was determined. All tests included sterility and growth controls.

[4] = system: Streptococcus faecalis (NCTC 775); test: MIC, Streptococcus faecalis; assay type: cell-based; conditions: Enterococcus faecalis, NCTC775, read-out: Minimum inhibitory concentrations (MICs), St. faecalis
Method in brief: as §1

[5] = system: S. aureus LS-1; test: S. aureus infection model in mice, minimal effective dose; assay type: in vivo; set-up: Development of swollen joints following infection: unit not given here; conditions: for Development of swollen joints following infection: mice
Protocol: In relation to the methods described in J. Med. Microbiol. 46, 208-213 (1997), compounds may be evaluated in vivo using a model S. Aureus strain LS-1 which, when injected intravenously into mice, consistently causes transient bacteraemia followed by joint localization in 3-4 days. Normal control mice show inflammation of 50-60% of their joints within 3-4 days. The severity of joint sepsis was measured using calipers to determine the diameter of the affected joints. In general, five groups of mice normally having a mean weight of between 18-28 g (5 mice per group) are used for each compound tested, wherein each group is infected with S. Aureus and then provided with a certain dose of the compound to be tested (with one group acting a control).
Determination of minimal effective dose of title compound of Example 2 in S. aureus infection model.
Mice were infected with S. aureus LS-1 (50 million cfu by iv injection) and treated with graded doses of the compound of Example 2 (iv injection within 30 minutes). Each group contained 5 mice and comprised the following.
Group 1: S. aureus LS-1 only
Group 2: S. aureus LS-1 plus 60 mg/kg of the compound of Example 2
Group 3: S. aureus LS-1 plus 40 mg/kg of the compound of Example 2
Group 4: S. aureus LS-1 plus 20 mg/kg of the compound of Example 2
Group 5: S. aureus LS-1 plus 10 mg/kg of the compound of Example 2
Mice were assessed daily for weight loss, development of swollen joints and morbidity/mortality.

[6] = value in parentheses, na = not active

Cn1cc(NC(=O)c2cc(NC(=O)c3ccc(/C=C/c4cnc5ccccc5c4)cc3)cn2C)cc1C(=O)NCCN1CCOCC1 [Example 2, 1-Methyl-4-({[1-methyl-4-({4-[(E)-2-(3-quinolinyl)ethenyl]benzoyl}amino)-1H-pyrrol-2-yl]carbonyl}amino)-N-[2-(4-morpholinyl)ethyl]-1H-pyrrole-2-carboxamide] gave an MIC [1, 6] of 25 µg/mL, an MIC ([1]; value outside parentheses) of 33.5 µM and an MIC [2, 6] of 0.25 µg/mL. For the same molecule, the MIC ([2]; value outside parentheses) was 0.32 µM, the MIC [3, 6] was 50 µg/mL and the MIC ([3]; value outside parentheses) was 67 µM. For the same molecule, the MIC [4, 6] was 25 µg/mL, the MIC ([4]; value outside parentheses) was 33.5 µM and the “Weight loss of mice after infection: Mean mouse weight (g) after” value (from here on “Weight loss of mice after infection”) ([5]; Group 2, 60 mg/kg iv, Day 2) was 27.1 g. The “Weight loss of mice after infection” value ([5]; Group 2, 60 mg/kg iv, Day 5) was 26.3 g, the “Weight loss of mice after infection” value ([5]; Group 2, 60 mg/kg iv, Day 7) was 26.1 g and the “Mortality rate of mice following infection” value (“Mortality rate” below) ([5]; Group 2, 60 mg/kg iv, day 2 post infection) was 0/5. The “Mortality rate” value ([5]; Group 2, 60 mg/kg iv, day 3 post infection) was 0/5, the “Mortality rate” value ([5]; Group 2, 60 mg/kg iv, day 4 post infection) was 1/5 and the “Mortality rate” value ([5]; Group 2, 60 mg/kg iv, day 5 post infection) was 1/5. The “Mortality rate” value ([5]; Group 2, 60 mg/kg iv, day 6 post infection) was 1/5, the “Mortality rate” value ([5]; Group 2, 60 mg/kg iv, day 7 post infection) was 1/5 and the “Weight loss of mice after infection” value ([5]; Group 3, 40 mg/kg iv, Day 2) was 27.0 g. For the same molecule, the “Weight loss of mice after infection” value ([5]; Group 3, 40 mg/kg iv, Day 5) was 26.4 g, the “Weight loss of mice after infection” value ([5]; Group 3, 40 mg/kg iv, Day 7) was 26.0 g and the “Mortality rate” value ([5]; Group 3, 40 mg/kg iv, day 2 post infection) was 0/5. For the same molecule, the “Mortality rate” value ([5]; Group 3, 40 mg/kg iv, day 3 post infection) was 0/5, the “Mortality rate” value ([5]; Group 3, 40 mg/kg iv, day 4 post infection) was 0/5 and the “Mortality rate” value ([5]; Group 3, 40 mg/kg iv, day 5 post infection) was 0/5. For the same molecule, the “Mortality rate” value ([5]; Group 3, 40 mg/kg iv, day 6 post infection) was 0/5, the “Mortality rate” value ([5]; Group 3, 40 mg/kg iv, day 7 post infection) was 0/5 and the “Weight loss of mice after infection” value ([5]; Group 4, 20 mg/kg iv, Day 2) was 27.6 g. For the same molecule, the “Weight loss of mice after infection” value ([5]; Group 4, 20 mg/kg iv, Day 5) was 25.4 g, the “Weight loss of mice after infection” value ([5]; Group 4, 20 mg/kg iv, Day 7) was 25.1 g and the “Mortality rate” value ([5]; Group 4, 20 mg/kg iv, day 2 post infection) was 0/5. For the same molecule, the “Mortality rate” value ([5]; Group 4, 20 mg/kg iv, day 3 post infection) was 0/5, the “Mortality rate” value ([5]; Group 4, 20 mg/kg iv, day 4 post infection) was 0/5 and the “Mortality rate” value ([5]; Group 4, 20 mg/kg iv, day 5 post infection) was 1/5. The “Mortality rate” value ([5]; Group 4, 20 mg/kg iv, day 6 post infection) was 2/5, the “Mortality rate” value ([5]; Group 4, 20 mg/kg iv, day 7 post infection) was 3/5 and the “Weight loss of mice after infection” value ([5]; Group 5, 10 mg/kg iv, Day 2) was 26.9 g. For the same molecule, the “Weight loss of mice after infection” value ([5]; Group 5, 10 mg/kg iv, Day 5) was 23.0 g, the “Weight loss of mice after infection” value ([5]; Group 5, 10 mg/kg iv, Day 7) was 22.6 g and the “Mortality rate” value ([5]; Group 5, 10 mg/kg iv, day 2 post infection) was 0/5. For the same molecule, the “Mortality rate” value ([5]; Group 5, 10 mg/kg iv, day 3 post infection) was 0/5, the “Mortality rate” value ([5]; Group 5, 10 mg/kg iv, day 4 post infection) was 0/5 and the “Mortality rate” value ([5]; Group 5, 10 mg/kg iv, day 5 post infection) was 0/5. The “Mortality rate” value ([5]; Group 5, 10 mg/kg iv, day 6 post infection) was 1/5, the “Mortality rate” value ([5]; Group 5, 10 mg/kg iv, day 7 post infection) was 2/5 and the “Development of swollen joints following infection” value (“Development” for short) ([5]; count n/N, Group 2, 60 mg/kg iv, day 2 post infection) was 0/20. For the same molecule, the “Development” value ([5]; count n/N, Group 2, 60 mg/kg iv, day 3 post infection) was 0/20, the “Development” value ([5]; count n/N, Group 2, 60 mg/kg iv, day 4 post infection) was 0/16 and the “Development” value ([5]; count n/N, Group 2, 60 mg/kg iv, day 5 post infection) was 0/16. The “Development” value ([5]; count n/N, Group 2, 60 mg/kg iv, day 6 post infection) was 0/16, the “Development” value ([5]; count n/N, Group 2, 60 mg/kg iv, day 7 post infection) was 0/16 and the “Development” value ([5]; count n/N, Group 3, 40 mg/kg iv, day 2 post infection) was 0/20. The “Development” value ([5]; count n/N, Group 3, 40 mg/kg iv, day 3 post infection) was 0/20, the “Development” value ([5]; count n/N, Group 3, 40 mg/kg iv, day 4 post infection) was 2/20 and the “Development” value ([5]; count n/N, Group 3, 40 mg/kg iv, day 5 post infection) was 3/20. The “Development” value ([5]; count n/N, Group 3, 40 mg/kg iv, day 6 post infection) was 3/20, the “Development” value ([5]; count n/N, Group 3, 40 mg/kg iv, day 7 post infection) was 3/20 and the “Development” value ([5]; count n/N, Group 4, 20 mg/kg iv, day 2 post infection) was 1/20. For the same molecule, the “Development” value ([5]; count n/N, Group 4, 20 mg/kg iv, day 3 post infection) was 1/20, the “Development” value ([5]; count n/N, Group 4, 20 mg/kg iv, day 4 post infection) was 2/20 and the “Development” value ([5]; count n/N, Group 4, 20 mg/kg iv, day 5 post infection) was 1/16. For the same molecule, the “Development” value ([5]; count n/N, Group 4, 20 mg/kg iv, day 6 post infection) was 6/20, the “Development” value ([5]; count n/N, Group 4, 20 mg/kg iv, day 7 post infection) was 4/12 and the “Development” value ([5]; count n/N, Group 5, 10 mg/kg iv, day 2 post infection) was 1/20. The “Development” value ([5]; count n/N, Group 5, 10 mg/kg iv, day 3 post infection) was 1/20, the “Development” value ([5]; count n/N, Group 5, 10 mg/kg iv, day 4 post infection) was 2/20 and the “Development” value ([5]; count n/N, Group 5, 10 mg/kg iv, day 5 post infection) was 2/20. The “Development” value ([5]; count n/N, Group 5, 10 mg/kg iv, day 6 post infection) was 5/16, the “Development” value ([5]; count n/N, Group 5, 10 mg/kg iv, day 7 post infection) was 4/12 and the “Development” value ([5]; figure in parentheses, Group 2, 60 mg/kg iv, day 2 post infection) was 0. The “Development” value ([5]; figure in parentheses, Group 2, 60 mg/kg iv, day 3 post infection) was 0, the “Development” value ([5]; figure in parentheses, Group 2, 60 mg/kg iv, day 4 post infection) was 0 and the “Development” value ([5]; figure in parentheses, Group 2, 60 mg/kg iv, day 5 post infection) was 0. For the same molecule, the “Development” value ([5]; figure in parentheses, Group 2, 60 mg/kg iv, day 6 post infection) was 0, the “Development” value ([5]; figure in parentheses, Group 2, 60 mg/kg iv, day 7 post infection) was 0 and the “Development” value ([5]; figure in parentheses, Group 3, 40 mg/kg iv, day 2 post infection) was 0. The “Development” value ([5]; figure in parentheses, Group 3, 40 mg/kg iv, day 3 post infection) was 0, the “Development” value ([5]; figure in parentheses, Group 3, 40 mg/kg iv, day 4 post infection) was 10 and the “Development” value ([5]; figure in parentheses, Group 3, 40 mg/kg iv, day 5 post infection) was 15. For the same molecule, the “Development” value ([5]; figure in parentheses, Group 3, 40 mg/kg iv, day 6 post infection) was 15, the “Development” value ([5]; figure in parentheses, Group 3, 40 mg/kg iv, day 7 post infection) was 15 and the “Development” value ([5]; figure in parentheses, Group 4, 20 mg/kg iv, day 2 post infection) was 5. For the same molecule, the “Development” value ([5]; figure in parentheses, Group 4, 20 mg/kg iv, day 3 post infection) was 5, the “Development” value ([5]; figure in parentheses, Group 4, 20 mg/kg iv, day 4 post infection) was 10 and the “Development” value ([5]; figure in parentheses, Group 4, 20 mg/kg iv, day 5 post infection) was 6.3. The “Development” value ([5]; figure in parentheses, Group 4, 20 mg/kg iv, day 6 post infection) was 30, the “Development” value ([5]; figure in parentheses, Group 4, 20 mg/kg iv, day 7 post infection) was 33 and the “Development” value ([5]; figure in parentheses, Group 5, 10 mg/kg iv, day 2 post infection) was 5. For the same molecule, the “Development” value ([5]; figure in parentheses, Group 5, 10 mg/kg iv, day 3 post infection) was 5, the “Development” value ([5]; figure in parentheses, Group 5, 10 mg/kg iv, day 4 post infection) was 10 and the “Development” value ([5]; figure in parentheses, Group 5, 10 mg/kg iv, day 5 post infection) was 10. For the same molecule, the “Development” value ([5]; figure in parentheses, Group 5, 10 mg/kg iv, day 6 post infection) was 31 and the “Development” value ([5]; figure in parentheses, Group 5, 10 mg/kg iv, day 7 post infection) was 33.

Reference: patent US8012967B2, “Minor groove binders” (University of Strathclyde, priority 2006, dated 2011)
